Earlier results on 6 compounds are cited in patent US20070166816A1, “Assay device that analyzes the absorption, metabolism, permeability and/or toxicity of a candidate compound” (Surface Logix, Inc., priority 2002, published 2007).

The test system of one data set is Caco-2 cells. To be noted: previously characterized in Caco-2 assays; qualitative grade.
The conditions of data set [1]: previously characterized in humans; qualitative grade.

`CC(C)NCC(O)COc1cccc2ccccc12` (stereo not drawn) [Propranolol--reference, Propranolol]: the Absorbance in vitro result with Caco-2 cells was “Moderate”.
Turning to `COc1ccc2cc([C@H](C)C(=O)O)ccc2c1` [Naproxein], the Absorbance in vivo entry in data set [1] is recorded as “High”. In the data set with Caco-2 cells, the Absorbance in vitro entry is on record as “High”.
Regarding `OC[C@@H](O)[C@@H](O)[C@H](O)[C@H](O)CO` [Mannitol-reference, Mannitol], the Absorbance in vivo entry in data set [1] is reported as “Very low”. The Absorbance in vitro result in the data set on Caco-2 cells is listed as “Low”.
Turning to `NS(=O)(=O)c1cc2c(cc1Cl)N=CNS2(=O)=O` [Chlorothiazide], in the data set on Caco-2 cells, the Absorbance in vitro entry is given as “Low”.
Consider `O=c1[nH]cc(F)c(=O)[nH]1` [5-Fluorouracil], for which, in data set [1], the Absorbance in vivo entry is “Low”. Also, the Absorbance in vitro result with Caco-2 cells is “Very High”.
With `NS(=O)(=O)c1cc(C(=O)O)c(NCc2ccco2)cc1Cl` [Furosemide], the Absorbance in vivo entry in data set [1] was “Moderate”.
